Experimental findings from ChEMBL document CHEMBL3621086, “Synthesis of -brominated phosphonates and their application as phosphate bioisosteres” (Medchemcomm, 2014) are described below.

Assay [1] in a line: Binding affinity to Yersinia YopH.
Another assay deals with MDA-MB-231. The assay is described as follows: Inhibition of cell migration in human MDA-MB-231 cells by scratch wound assay. The assay is classed as functional.
For assay [2], the target named is T1, Autotaxin (Homo sapiens, UniProt Q13822). Put plainly: Inhibition of recombinant ATX (unknown origin) assessed as inhibition of hydrolysis of fluoregenic lysoPC analogue FS-3.
Assay [3] concerns the target T1, Autotaxin. The assay is described as follows: Inhibition of recombinant ATX (unknown origin) assessed as inhibition of hydrolysis of fluoregenic lysoPC analogue FS-3 at 10 uM.
The target in assay [4] is Transient receptor potential cation channel subfamily V member 1 (Homo sapiens, UniProt Q8NER1). Put plainly: Activation of TRPV-1 channel (unknown origin).
Transient receptor potential cation channel subfamily V member 1, sequence (Q8NER1 whole entry): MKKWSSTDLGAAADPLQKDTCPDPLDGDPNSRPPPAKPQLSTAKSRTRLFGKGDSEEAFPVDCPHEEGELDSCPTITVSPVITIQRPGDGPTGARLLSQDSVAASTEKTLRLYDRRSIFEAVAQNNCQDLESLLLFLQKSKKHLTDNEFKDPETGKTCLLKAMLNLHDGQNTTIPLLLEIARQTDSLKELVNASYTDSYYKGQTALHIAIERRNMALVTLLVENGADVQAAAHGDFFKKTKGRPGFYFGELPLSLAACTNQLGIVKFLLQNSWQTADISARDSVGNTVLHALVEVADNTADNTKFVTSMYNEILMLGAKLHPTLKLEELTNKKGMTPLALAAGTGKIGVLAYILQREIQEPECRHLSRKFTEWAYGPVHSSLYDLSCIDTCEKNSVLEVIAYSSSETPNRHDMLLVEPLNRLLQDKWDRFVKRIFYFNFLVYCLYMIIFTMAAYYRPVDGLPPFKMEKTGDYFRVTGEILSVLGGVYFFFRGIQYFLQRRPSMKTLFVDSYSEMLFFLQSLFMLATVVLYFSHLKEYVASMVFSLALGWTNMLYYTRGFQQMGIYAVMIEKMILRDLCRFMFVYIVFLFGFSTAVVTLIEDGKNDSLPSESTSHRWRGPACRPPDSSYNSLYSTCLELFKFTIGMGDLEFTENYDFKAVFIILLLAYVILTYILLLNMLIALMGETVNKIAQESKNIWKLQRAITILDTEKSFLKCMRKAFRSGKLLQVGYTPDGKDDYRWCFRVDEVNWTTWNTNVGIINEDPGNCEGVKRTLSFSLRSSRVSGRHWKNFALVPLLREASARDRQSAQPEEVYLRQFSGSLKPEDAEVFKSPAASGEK
Assay [5] concerns the target Lysophosphatidic acid receptor 2 (Homo sapiens, UniProt Q9HBW0). Put plainly: Antagonist activity at human LPA2 receptor expressed in […] cells assessed as inhibition of LPA-induced Ca2+ mobilization by FURA-2AM dye based fluorescence assay. The assay is classed as functional, cell-based. (In general: Calcium flux is commonly read through the fluorescence of an indicator in the cells.)

For assay [6], the target named is T2, Lysophosphatidic acid receptor 3 (Homo sapiens, UniProt Q9UBY5).
T2 sequence (Q9UBY5 whole entry): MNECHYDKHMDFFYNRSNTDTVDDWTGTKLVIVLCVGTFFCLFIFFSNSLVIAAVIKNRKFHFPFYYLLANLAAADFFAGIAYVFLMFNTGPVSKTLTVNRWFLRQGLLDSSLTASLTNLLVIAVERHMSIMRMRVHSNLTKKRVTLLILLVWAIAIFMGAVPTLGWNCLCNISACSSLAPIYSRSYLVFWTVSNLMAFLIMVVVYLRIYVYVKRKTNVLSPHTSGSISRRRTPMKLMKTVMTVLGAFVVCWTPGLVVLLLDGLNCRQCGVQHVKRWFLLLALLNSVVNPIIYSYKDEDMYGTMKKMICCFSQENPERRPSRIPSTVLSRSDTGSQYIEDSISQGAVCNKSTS
Put plainly: Antagonist activity at human LPA3 receptor expressed in […] cells assessed as inhibition of LPA-induced Ca2+ mobilization by FURA-2AM dye based fluorescence assay. The assay is classed as functional, cell-based.

The target of assay [7] is Lysophosphatidic acid receptor 1 (Homo sapiens, UniProt Q92633). The assay is described as follows: Antagonist activity at human LPA1 receptor expressed in […] cells assessed as inhibition of LPA-induced Ca2+ mobilization by FURA-2AM dye based fluorescence assay. The assay is classed as functional, cell-based.
Lysophosphatidic acid receptor 1, sequence (Q92633 whole entry): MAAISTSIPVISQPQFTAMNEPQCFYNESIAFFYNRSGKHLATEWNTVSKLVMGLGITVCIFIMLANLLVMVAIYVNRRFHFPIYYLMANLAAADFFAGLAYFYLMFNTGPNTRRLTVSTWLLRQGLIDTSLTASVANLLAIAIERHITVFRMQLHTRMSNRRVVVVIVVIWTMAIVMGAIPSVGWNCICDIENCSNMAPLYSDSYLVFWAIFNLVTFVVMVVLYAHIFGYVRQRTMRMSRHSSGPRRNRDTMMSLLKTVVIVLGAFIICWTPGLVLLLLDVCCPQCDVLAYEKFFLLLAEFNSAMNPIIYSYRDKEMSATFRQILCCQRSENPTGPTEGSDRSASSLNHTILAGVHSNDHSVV
Assay [8] has as its target Lysophosphatidic acid receptor 4 (Homo sapiens, UniProt Q99677). Put plainly: Antagonist activity at human LPA4 receptor expressed in CHO cells assessed as inhibition of LPA-induced Ca2+ mobilization by FURA-2AM dye based fluorescence assay. The assay is classed as functional, cell-based.
Assay [9] has as its target T3, Purine nucleoside phosphorylase (Homo sapiens, UniProt P00491).
T3 sequence (P00491 whole entry): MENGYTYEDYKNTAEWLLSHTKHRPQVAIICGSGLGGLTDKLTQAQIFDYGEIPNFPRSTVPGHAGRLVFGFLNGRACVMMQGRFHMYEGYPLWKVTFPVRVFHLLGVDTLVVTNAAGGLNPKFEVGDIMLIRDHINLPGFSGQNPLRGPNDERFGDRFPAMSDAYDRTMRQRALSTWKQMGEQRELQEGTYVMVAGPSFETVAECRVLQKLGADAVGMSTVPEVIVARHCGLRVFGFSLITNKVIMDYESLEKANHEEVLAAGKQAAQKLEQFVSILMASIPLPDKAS
The assay is described as follows: Inhibition of human erythrocyte PNP.

Broadly, the Ki is the dissociation constant of the complex between target and ligand, obtained from inhibition or displacement. Usually IC50 stands for the concentration at which inhibition is half-maximal. As usually defined, the inhibition is the share of the control response that was lost under treatment. The term Kd denotes the free concentration of one partner at which half of the binding sites on the other are occupied at equilibrium, for simple one-to-one binding. A low value points to higher affinity.

Lysophosphatidic acid receptor 4, sequence (Q99677 whole entry): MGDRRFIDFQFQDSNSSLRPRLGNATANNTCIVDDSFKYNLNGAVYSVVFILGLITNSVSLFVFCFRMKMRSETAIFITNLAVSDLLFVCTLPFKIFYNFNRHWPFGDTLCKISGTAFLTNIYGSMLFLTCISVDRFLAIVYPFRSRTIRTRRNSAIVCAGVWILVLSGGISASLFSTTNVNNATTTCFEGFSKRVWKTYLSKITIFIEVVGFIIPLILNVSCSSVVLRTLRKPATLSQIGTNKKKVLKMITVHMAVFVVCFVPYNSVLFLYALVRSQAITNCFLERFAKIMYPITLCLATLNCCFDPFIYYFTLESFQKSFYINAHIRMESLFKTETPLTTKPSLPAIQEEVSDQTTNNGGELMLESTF
Lysophosphatidic acid receptor 2, sequence (Q9HBW0 whole entry): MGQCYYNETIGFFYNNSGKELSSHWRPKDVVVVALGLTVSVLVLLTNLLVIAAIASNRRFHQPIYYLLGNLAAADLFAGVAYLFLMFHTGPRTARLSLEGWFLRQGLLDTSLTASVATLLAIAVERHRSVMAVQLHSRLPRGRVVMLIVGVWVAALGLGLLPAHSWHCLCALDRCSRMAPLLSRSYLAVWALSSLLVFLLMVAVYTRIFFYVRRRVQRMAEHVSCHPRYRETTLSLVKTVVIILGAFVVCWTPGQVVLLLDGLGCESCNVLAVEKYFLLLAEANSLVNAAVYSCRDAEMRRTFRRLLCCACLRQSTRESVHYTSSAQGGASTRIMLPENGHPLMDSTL

`O=P(O)(O)C(Br)c1ccccc1` (configuration not stated): in [1], affinity was put at a Ki of 4100 µM.
In the case of `CCCCCCCCCCCCCCCC(=O)OC[C@@H](O)C[C@H](Br)P(=O)(O)O`, the “inhibition (INH)” value in the assay with MDA-MB-231 came to 50%. Further, the IC50 on Autotaxin [2] was found to be 0.022 µM. On Autotaxin [3], the inhibition was 98%.
In the case of `CCCCCCCCCCCCCCCC(=O)OC[C@@H](O)CC(Br)P(=O)(O)O` (mixture of isomers) [listing 1 of 2 here], binding in assay [4] was characterised by a dissociation constant (Kd) of 1.1 µM.
Still for that read-out and setting: as for `CCCCCCCC/C=C\CCCCCCCC(=O)OC[C@@H](O)COP(=O)(O)O` [LYSOPHOSPHATIDIC ACID], the figure is 0.754 µM.
For `CCN(CC)c1ccc2c(-c3ccc(S(=O)(=O)[O-])cc3S(=O)(=O)NCc3ccc(C(Br)P(=O)(O)O)cc3)c3ccc(=[N+](CC)CC)cc-3oc2c1` (configuration not stated), affinity in assay [1] was put at a Ki of 690 µM.
Turning to `CCCCCCCCCCCCCCCC(=O)OC[C@@H](O)CC(Br)P(=O)(O)O` (mixture of isomers) [listing 2 of 2 here], the inhibition on Autotaxin [3] amounted to 98%.
As to `CCCCCCCCCCCCCCCC(=O)OC[C@@H](O)CC(Br)P(=O)(O)O` (some centres not stated), the Ki in assay [5], in assay [6], in assay [7] and in assay [8] was 0.17 µM in each case.
Take `O=C(CCCC[C@H]1SC[C@H]2NC(=O)N[C@H]21)NCc1ccc(C(Br)P(=O)(O)O)cc1` (some centres not stated): the Ki in assay [1] is 740 µM.
`CCCCCCCCCCCCCCCC(=O)OC[C@@H](O)C[C@@H](Br)P(=O)(O)O`: the “inhibition (INH)” value in the assay with MDA-MB-231 turned out to be 50%. Also, the IC50 on Autotaxin [2] worked out at 0.165 µM. In addition, the inhibition at Autotaxin [3] was 98%.
Turning to `CCCCCCCC/C=C\CCCCCCCC(=O)OC[C@@H](O)CC(Br)P(=O)(O)O` (some centres not stated), the Ki in [5], in assay [6], in assay [7] and in [8] was 0.17 µM throughout.
Regarding `Nc1nc2c(ncn2CCCCC(F)(F)P(=O)(O)O)c(=O)[nH]1`, the Ki in [9] was 0.174 µM.
`CCN(CC)c1ccc2c(-c3ccc(S(=O)(=O)NCc4ccc(C(Br)P(=O)(O)O)cc4)cc3S(=O)(=O)[O-])c3ccc(=[N+](CC)CC)cc-3oc2c1` (configuration not stated) registered a Ki in assay [1] of 690 µM.
